Here are results for 12 compounds from US8163755B2, “Hexahydrooxazinopterine compounds” (Takeda Pharmaceutical Company Limited, priority 2009, dated 2012).

The target in the test is T1, human mTOR (Homo sapiens, UniProt P42345).
T1 construct: purchased Invitrogen
Put plainly: Inhibition of mTOR (Example A, LanthaScreen TR-FRET, GFP-4E-BP1 substrate). Format: biochemical. The settings on record: inhibition of human mTOR in the assay of Example A. As for the experimental part:
Example A Inhibition of mTOR
Purified mTOR are purchased from Invitrogen. mTOR activity was determined using Invitrogen's LanthaScreen system. The inhibitory properties of compounds relative to mTOR may be determined using a black 384-well-plate format in the following buffer 50 mM Hepes, 10 mM NaCl, 10 mM MgCl2, 0.2 mM EDTA, 0.01% Brij35, 2 mM DTT at pH7.3. The test compound is prepared in DMSO using 2 fold serial dilutions for 11 data points which are added to the buffer so that each dilution contains 3% DMSO.
An Assay for mTOR Inhibition is as Follows:
Combine in each well 2 μl of 1.2 μM GFP-4E-BP1 (Invitrogen) and 150 μM ATP (in buffer), 2 μl of diluted test compound (3% DMSO in buffer), and 2 μl of 6 nM mTor in buffer. The reaction mixture is then incubated at room temperature for 30 min, and quenched by adding 40 mM ETDA with 4 nM Tb-anti-p4E-BP1 [pThr46] antibody in TR-FRET dilution buffer (Invitrogen). The plate is kept at room temperature for 1 hour and then read using PheraStar (BMG labtech) LanthaScreen mode.
pIC50 values, the negative of the log of the IC50, are calculated by non-linear curve fitting of the compound concentrations and percent of inhibition to the standard pIC50 equation.
With `CNC(=O)Nc1ccc(-c2ncc3c(n2)N2C[C@@H](C)OC[C@]2(C)C(=O)N3CC2CC2)cc1` [Example 19, 1-(4-((6aR,9R)-5-(cyclopropylmethyl)-6a,9-dimethyl-6-oxo-5,6,6a,7,9,10-hexahydro-[1,4]oxazino[3,4-h]pteridin-2-yl)phenyl)-3-methylurea], the IC50 was 31.6 to 1000 nM.
`COCCCN1C(=O)[C@]2(C)COCCN2c2nc(-c3ccc(NC(=O)NC4CC4)cc3)ncc21` [Example 41, (S)-1-cyclopropyl-3-(4-(5-(3-methoxypropyl)-6a-methyl-6-oxo-5,6,6a,7,9,10-hexahydro-[1,4]oxazino[3,4-h]pteridin-2-yl)phenyl)urea] showed an IC50 of under 31.6 nM.
As for `CC12COCCN1c1nc(-c3ccc(NC(=O)NC4CC4)cc3)ncc1N(C1CCOC1)C2=O` (stereo not drawn) [Example 30, 1-cyclopropyl-3-(4-(6a-methyl-6-oxo-5-(tetrahydrofuran-3-yl)-5,6,6a,7,9,10-hexahydro-[1,4]oxazino[3,4-h]pteridin-2-yl)phenyl)urea], the 50% inhibitory concentration (IC50) was under 31.6 nM.
The same measure for `CCNC(=O)Nc1ccc(-c2ncc3c(n2)N2CCOC[C@@]2(C)C(=O)N3CC2CC2)cc1` [Example 7, (S)-1-(4-(5-(cyclopropylmethyl)-6a-methyl-6-oxo-5,6,6a,7,9,10-hexahydro-[1,4]oxazino[3,4-h]pteridin-2-yl)phenyl)-3-ethylurea]: under 31.6 nM; for `CNC(=O)Nc1ccc(-c2ncc3c(n2)N2CCOCC2(C)C(=O)N3CCCOC)cc1` (stereo not drawn) [Example 35, 1-(4-[5-(3-methoxypropyl)-6a-methyl-6-oxo-5,6,6a,7,9,10-hexahydro[1,4]oxazino[3,4-h]pteridin-2-yl]phenyl)-3-methylurea]: under 31.6 nM.
Consider `CNC(=O)Nc1ccc(-c2nc(N3CCOCC3)c3c(n2)N2CCOCC2(C)C(=O)N3C)cc1` (stereo not drawn) [Example 14, 1-(4-(5,6a-dimethyl-4-morpholino-6-oxo-5,6,6a,7,9,10-hexahydro-[1,4]oxazino[3,4-h]pteridin-2-yl)phenyl)-3-methylurea], for which the IC50 is 31.6 to 1000 nM.
The same measure for `CC(F)(F)CN1C(=O)[C@]2(C)COCCN2c2nc(-c3ccc(NC(=O)NC4CC4)cc3)ncc21` [Example 49, (S)-1-cyclopropyl-3-(4-(5-(2,2-difluoropropyl)-6a-methyl-6-oxo-5,6,6a,7,9,10-hexahydro-[1,4]oxazino[3,4-h]pteridin-2-yl)phenyl)urea]: under 31.6 nM.
As to `CNC(=O)Nc1ccc(-c2ncc3c(n2)N2CCOCC2(C)C(=O)N3C(C)C)cc1` (stereo not drawn) [Example 15, 1-(4-(5-isopropyl-6a-methyl-6-oxo-5,6,6a,7,9,10-hexahydro-[1,4]oxazino[3,4-h]pteridin-2-yl)phenyl)-3-methylurea], the IC50 is under 31.6 nM.
On to `C[C@]12COCCN1c1nc(-c3ccc(NC(=O)NC4CC4)cc3)ncc1N(CC(F)(F)F)C2=O` [Example 53, (R)-1-cyclopropyl-3-(4-(6a-methyl-6-oxo-5-(2,2,2-trifluoroethyl)-5,6,6a,7,9,10-hexahydro-[1,4]oxazino[3,4-h]pteridin-2-yl)phenyl)urea], for which the concentration for half-maximal inhibition (IC50) was under 31.6 nM.
`CNC(=O)Nc1ccc(-c2ncc3c(n2)N2CCOC[C@@]2(C)C(=O)N3CCCOC)cc1` [Example 36, (S)-1-(4-[5-(3-methoxypropyl)-6a-methyl-6-oxo-5,6,6a,7,9,10-hexahydro[1,4]oxazino[3,4-h]pteridin-2-yl]phenyl)-3-methylurea] had an IC50 of under 31.6 nM.
With `CNC(=O)Nc1ccc(-c2ncc3c(n2)N2CCOCC2(C)C(=O)N3CC2CCC2)cc1` (stereo not drawn) [Example 16, 1-(4-(5-(cyclobutylmethyl)-6a-methyl-6-oxo-5,6,6a,7,9,10-hexahydro-[1,4]oxazino[3,4-h]pteridin-2-yl)phenyl)-3-methylurea], the IC50 is under 31.6 nM.
The same measure for `CC12COCCN1c1nc(-c3ccc(NC(=O)NC4CC4)cc3)ncc1N(CCCS(C)(=O)=O)C2=O` (stereo not drawn) [Example 46, 1-cyclopropyl-3-(4-(6a-methyl-5-(3-(methylsulfonyl)propyl)-6-oxo-5,6,6a,7,9,10-hexahydro-[1,4]oxazino[3,4-h]pteridin-2-yl)phenyl)urea]: under 31.6 nM.

For orientation: IC50 means the midpoint of a concentration-inhibition curve. High values mean lower potency, low ones higher potency.
